Data as given in US20250215012A1, “IKZF2 DEGRADERS AND USES THEREOF” (REGENTS OF THE UNIVERSITY OF MICHIGAN, priority 2022, published 2025).

Molecular target: IKZF2 (Homo sapiens (Human), UniProt Q96SW2+Q9UKS7)
Experiment: IKZF2 HiBiT Assay (Jurkat-IKZF2-HiBiT cell line)
Format: cell-based
Details: Jurkat-IKZF2-HiBiT cells, 24 hours; for DC50: read-out: HiBit assay degradation analysis DC50; for Dmax: read-out: HiBit assay degradation analysis Dmax
How it was run: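 IKZF2 degradation was assessed as HiBiT luminescence in Jurkat-IKZF2-HiBiT cells, using lytic detection after 24 h of compound treatment at 37 °C, 5% CO2.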

Sequence of IKZF2 (Q9UKS7 whole entry): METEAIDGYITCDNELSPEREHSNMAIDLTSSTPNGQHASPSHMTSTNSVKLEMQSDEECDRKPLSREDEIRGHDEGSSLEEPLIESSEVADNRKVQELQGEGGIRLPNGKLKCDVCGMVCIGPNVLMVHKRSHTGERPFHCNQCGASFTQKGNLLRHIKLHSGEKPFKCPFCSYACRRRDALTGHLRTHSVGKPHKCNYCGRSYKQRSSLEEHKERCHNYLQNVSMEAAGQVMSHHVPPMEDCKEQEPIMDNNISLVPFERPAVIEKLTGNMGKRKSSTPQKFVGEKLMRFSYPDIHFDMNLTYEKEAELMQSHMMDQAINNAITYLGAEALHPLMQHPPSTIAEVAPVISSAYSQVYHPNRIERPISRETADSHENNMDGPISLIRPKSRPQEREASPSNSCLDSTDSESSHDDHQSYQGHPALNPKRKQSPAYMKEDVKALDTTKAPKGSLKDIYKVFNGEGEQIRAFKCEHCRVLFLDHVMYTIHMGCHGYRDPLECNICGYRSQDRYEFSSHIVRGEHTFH
Sequence of IKZF2 (Q96SW2 whole entry): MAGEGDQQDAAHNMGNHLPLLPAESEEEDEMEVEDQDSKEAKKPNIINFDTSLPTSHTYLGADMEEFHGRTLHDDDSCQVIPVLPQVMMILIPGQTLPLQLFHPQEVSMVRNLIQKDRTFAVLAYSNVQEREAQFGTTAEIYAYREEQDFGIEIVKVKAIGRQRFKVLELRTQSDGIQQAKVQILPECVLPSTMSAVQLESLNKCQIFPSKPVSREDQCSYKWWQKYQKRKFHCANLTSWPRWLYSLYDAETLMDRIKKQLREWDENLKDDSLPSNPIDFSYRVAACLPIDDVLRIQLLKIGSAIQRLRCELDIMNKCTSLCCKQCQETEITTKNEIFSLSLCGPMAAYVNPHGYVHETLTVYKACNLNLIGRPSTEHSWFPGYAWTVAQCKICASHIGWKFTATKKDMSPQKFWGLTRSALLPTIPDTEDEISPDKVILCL
Sequence of IKZF2 (Q16531 whole entry partner): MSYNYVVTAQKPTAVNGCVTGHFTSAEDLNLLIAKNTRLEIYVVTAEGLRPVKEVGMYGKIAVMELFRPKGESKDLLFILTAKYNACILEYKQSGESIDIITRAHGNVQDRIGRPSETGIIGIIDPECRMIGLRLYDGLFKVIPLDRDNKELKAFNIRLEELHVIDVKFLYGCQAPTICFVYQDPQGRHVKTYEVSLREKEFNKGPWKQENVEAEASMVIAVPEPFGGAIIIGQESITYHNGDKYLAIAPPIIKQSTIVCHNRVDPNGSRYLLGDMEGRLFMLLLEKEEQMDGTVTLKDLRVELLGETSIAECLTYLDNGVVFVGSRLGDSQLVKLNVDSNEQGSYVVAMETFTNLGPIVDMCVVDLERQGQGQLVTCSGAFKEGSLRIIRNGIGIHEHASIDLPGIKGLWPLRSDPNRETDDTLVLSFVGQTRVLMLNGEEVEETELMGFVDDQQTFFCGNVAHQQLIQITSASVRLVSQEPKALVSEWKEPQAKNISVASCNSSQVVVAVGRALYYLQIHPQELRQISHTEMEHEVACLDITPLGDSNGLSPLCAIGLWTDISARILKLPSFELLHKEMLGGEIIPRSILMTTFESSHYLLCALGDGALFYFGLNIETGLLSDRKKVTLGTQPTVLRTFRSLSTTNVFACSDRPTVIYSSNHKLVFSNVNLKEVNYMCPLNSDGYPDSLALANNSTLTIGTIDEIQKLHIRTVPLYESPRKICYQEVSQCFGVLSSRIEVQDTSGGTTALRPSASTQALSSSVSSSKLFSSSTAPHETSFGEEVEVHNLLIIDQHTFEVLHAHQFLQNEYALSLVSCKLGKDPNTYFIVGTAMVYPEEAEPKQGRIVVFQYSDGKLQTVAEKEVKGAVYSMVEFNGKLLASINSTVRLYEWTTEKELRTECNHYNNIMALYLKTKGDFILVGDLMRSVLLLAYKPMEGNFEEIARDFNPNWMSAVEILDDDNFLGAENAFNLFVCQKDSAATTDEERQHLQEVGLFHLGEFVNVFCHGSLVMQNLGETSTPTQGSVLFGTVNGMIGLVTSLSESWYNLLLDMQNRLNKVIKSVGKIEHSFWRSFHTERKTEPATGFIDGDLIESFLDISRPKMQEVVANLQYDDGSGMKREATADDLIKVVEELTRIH

Compound	DC50 [nM]	Dmax [%]
O=C1CC[C@H](N2Cc3c(ccc4c3OCC43CCN(Cc4cccc(-c5cnn([C@H]6CCOC6)c5)c4)CC3)C2=O)C(=O)N1 [Compound A269, (S)-3-(6-oxo-1′-(3-(1-((S)-tetrahydrofuran-3-yl)-1H-pyrazol-4-yl)benzyl)-6,8-dihydro-2H,7H-spiro[furo[2,3-e]isoindole-3,4′-piperidin]-7-yl)piperidine-2,6-dione]	50 to 200	60 to 80
O=C1CCC(N2Cc3c(ccc4c3OCC43CCN(C[C@H]4C[C@@H]4c4ccccc4)CC3)C2=O)C(=O)N1 (relative stereo) [Compound A180, 3-(6-oxo-1′-((trans-2-phenylcyclopropyl)methyl)-6,8-dihydro-2H,7H-spiro[furo[2,3-e]isoindole-3,4′-piperidin]-7-yl)piperidine-2,6-dione]	> 500	< 40
Cc1nnc(-c2cccc(CN3CCC4(CC3)COc3c4ccc4c3CN(C3CCC(=O)NC3=O)C4=O)c2)o1 (stereo not drawn) [Compound A151, 3-(1′-(3-(5-methyl-1,3,4-oxadiazol-2-yl)benzyl)-6-oxo-6,8-dihydro-2H,7H-spiro[furo[2,3-e]isoindole-3,4′-piperidin]-7-yl)piperidine-2,6-dione]	200 to 500	40 to 60
COCCn1cc2cc(CN3CCC4(CC3)COc3c4ccc4c3CN(C3CCC(=O)NC3=O)C4=O)ccc2n1 (stereo not drawn) [Compound A341, 3-(1′-((2-(2-methoxyethyl)-2H-indazol-5-yl)methyl)-6-oxo-6,8-dihydro-2H,7H-spiro[furo[2,3-e]isoindole-3,4′-piperidin]-7-yl) piperidine-2,6-dione]	> 500	< 40
O=C1CCC(N2Cc3c(ccc4c3OCC43CCN(Cc4cccc(NS(=O)(=O)c5ccccc5)c4)CC3)C2=O)C(=O)N1 (stereo not drawn) [Compound A261, N-(3-((7-(2,6-dioxopiperidin-3-yl)-6-oxo-7,8-dihydro-2H,6H-spiro[furo[2,3-e]isoindole-3,4′-piperidin]-1′-yl)methyl)phenyl)benzenesulfonamide]	> 500	< 40
[2H]C([2H])([2H])n1cc2ccc(CN3CCC4(CC3)COc3c4ccc4c3CN([C@H]3CCC(=O)NC3=O)C4=O)cc2n1 [Compound A301, (S)-3-(1′-((2-(methyl-d3)-2H-indazol-6-yl)methyl)-6-oxo-6,8-dihydro-2H,7H-spiro[furo[2,3-e]isoindole-3,4′-piperidin]-7-yl)piperidine-2,6-dione]	< 50	60 to 80
O=C1CCC(N2Cc3c(ccc4c3OCC43CCN(Cc4ncsc4-c4ccccc4)CC3)C2=O)C(=O)N1 (stereo not drawn) [Compound A158, 3-(6-oxo-1′-((5-phenylthiazol-4-yl)methyl)-6,8-dihydro-2H,7H-spiro[furo[2,3-e]isoindole-3,4′-piperidin]-7-yl)piperidine-2,6-dione]	> 500	< 40
O=C1CCC(N2Cc3c(ccc4c3OCC43CCN(Cc4cccc(CF)c4)CC3)C2=O)C(=O)N1 (stereo not drawn) [Compound A93, 3-(1′-(3-(fluoromethyl)benzyl)-6-oxo-6,8-dihydro-2H,7H-spiro[furo[2,3-e]isoindole-3,4′-piperidin]-7-yl)piperidine-2,6-dione]	50 to 200	60 to 80
O=C1CC[C@H](N2Cc3c(ccc4c3OCC43CCN(Cc4cccc(-c5cnn([C@@H]6CCOC6)c5)c4)CC3)C2=O)C(=O)N1 [Compound A270, (S)-3-(6-oxo-1′-(3-(1-((R)-tetrahydrofuran-3-yl)-1H-pyrazol-4-yl)benzyl)-6,8-dihydro-2H,7H-spiro[furo[2,3-e]isoindole-3,4′-piperidin]-7-yl)piperidine-2,6-dione]	< 50	60 to 80
O=C1CCC(N2Cc3c(ccc4c3OCC43CCN(Cc4cccc5ccsc45)CC3)C2=O)C(=O)N1 (stereo not drawn) [Compound A189, 3-(1′-(benzo[b]thiophen-7-ylmethyl)-6-oxo-6,8-dihydro-2H,7H-spiro[furo[2,3-e]isoindole-3,4′-piperidin]-7-yl)piperidine-2,6-dione]	50 to 200	60 to 80
O=C1CCC(N2Cc3c(ccc4c3OCC43CCN(Cc4cc5ccccc5s4)CC3)C2=O)C(=O)N1 (stereo not drawn) [Compound A184, 3-(1′-(benzo[b]thiophen-2-ylmethyl)-6-oxo-6,8-dihydro-2H,7H-spiro[furo[2,3-e]isoindole-3,4′-piperidin]-7-yl)piperidine-2,6-dione]	> 500	< 40
O=C1CC[C@H](N2Cc3c(ccc4c3OCC43CCN(Cc4cccc(C5CCOC5)c4)CC3)C2=O)C(=O)N1 (stereo partly drawn) [Compound A304, (3S)-3-(6-oxo-1′-(3-(tetrahydrofuran-3-yl)benzyl)-6,8-dihydro-2H,7H-spiro[furo[2,3-e]isoindole-3,4′-piperidin]-7-yl)piperidine-2,6-dione]	> 500	40 to 60
O=C1CCC(N2Cc3c(ccc4c3OCC43CCN(Cc4ccn(-c5cccc(F)c5)n4)CC3)C2=O)C(=O)N1 (stereo not drawn) [Compound A316, 3-(1′-((1-(3-fluorophenyl)-1H-pyrazol-3-yl)methyl)-6-oxo-6,8-dihydro-2H,7H-spiro[furo[2,3-e]isoindole-3,4′-piperidin]-7-yl)piperidine-2,6-dione]	> 500	40 to 60
O=C1CC[C@H](N2Cc3c(ccc4c3OCC43CCN(Cc4cccc(-c5ccn(C(F)F)n5)c4)CC3)C2=O)C(=O)N1 [Compound A289, (S)-3-(1′-(3-(1-(difluoromethyl)-1H-pyrazol-3-yl)benzyl)-6-oxo-6,8-dihydro-2H,7H-spiro[furo[2,3-e]isoindole-3,4′-piperidin]-7-yl)piperidine-2,6-dione]	< 50	60 to 80
O=C1CC[C@H](N2Cc3c(ccc4c3OCC43CCN(Cc4cnn(C[C@H]5C[C@@H]5c5ccccc5)c4)CC3)C2=O)C(=O)N1 [Compound A347, (S)-3-(6-oxo-1′-((1-(((1S,2S)-2-phenylcyclopropyl)methyl)-1H-pyrazol-4-yl)methyl)-6,8-dihydro-2H,7H-spiro[furo[2,3-e]isoindole-3,4′-piperidin]-7-yl)piperidine-2,6-dione]		60 to 80
[2H]C([2H])([2H])n1ccc(-c2cccc(CN3CCC4(CC3)COc3c4ccc4c3CN([C@H]3CCC(=O)NC3=O)C4=O)c2)n1 [Compound A302, (S)-3-(1′-(3-(1-(methyl-d3)-1H-pyrazol-3-yl)benzyl)-6-oxo-6,8-dihydro-2H,7H-spiro[furo[2,3-e]isoindole-3,4′-piperidin]-7-yl)piperidine-2,6-dione]	< 50	60 to 80
O=C1CCC(N2Cc3c(ccc4c3OCC43CCN(C[C@H]4C[C@H](Oc5ccc(F)cc5)C4)CC3)C2=O)C(=O)N1 (stereo partly drawn) [Compound A351, 3-(1′-(((1r,3r)-3-(4-fluorophenoxy)cyclobutyl)methyl)-6-oxo-6,8-dihydro-2H,7H-spiro[furo[2,3-e]isoindole-3,4′-piperidin]-7-yl)piperidine-2,6-dione]	> 500	40 to 60
O=C1CCC(N2Cc3c(ccc4c3OCC43CCN(Cc4ccc(OC(F)F)cc4)CC3)C2=O)C(=O)N1 (stereo not drawn) [Compound A197, 3-(1′-(4-(difluoromethoxy)benzyl)-6-oxo-6,8-dihydro-2H,7H-spiro[furo[2,3-e]isoindole-3,4′-piperidin]-7-yl)piperidine-2,6-dione]	> 500	< 40
O=C1CCC(N2Cc3c(ccc4c3OCC43CCN(Cc4cccc5c(F)cccc45)CC3)C2=O)C(=O)N1 (stereo not drawn) [Compound A35, 3-(1′-((5-fluoronaphthalen-1-yl)methyl)-6-oxo-6,8-dihydro-2H,7H-spiro[furo[2,3-e]isoindole-3,4′-piperidin]-7-yl)piperidine-2,6-dione]	< 50	> 80
COCCn1cc(-c2cccc(CN3CCC4(CC3)COc3c4ccc4c3CN([C@H]3CCC(=O)NC3=O)C4=O)c2)cn1 [Compound A286, (S)-3-(1′-(3-(1-(2-methoxyethyl)-1H-pyrazol-4-yl)benzyl)-6-oxo-6,8-dihydro-2H,7H-spiro[furo[2,3-e]isoindole-3,4′-piperidin]-7-yl)piperidine-2,6-dione]	50 to 200	60 to 80
O=C1CCC(N2Cc3c(ccc4c3OCC43CCN(Cc4cccc(-c5ncon5)c4)CC3)C2=O)C(=O)N1 (stereo not drawn) [Compound A150, 3-(1′-(3-(1,2,4-oxadiazol-3-yl)benzyl)-6-oxo-6,8-dihydro-2H,7H-spiro[furo[2,3-e]isoindole-3,4′-piperidin]-7-yl)piperidine-2,6-dione]	50 to 200	60 to 80
O=C1CC[C@H](N2Cc3c(ccc4c3OCC43CCN(Cc4cnn(S(=O)(=O)c5cccc(Cl)c5)c4)CC3)C2=O)C(=O)N1 [Compound A350, (S)-3-(1′-((1-((3-chlorophenyl)sulfonyl)-1H-pyrazol-4-yl)methyl)-6-oxo-6,8-dihydro-2H,7H-spiro[furo[2,3-e]isoindole-3,4′-piperidin]-7-yl)piperidine-2,6-dione]		60 to 80
O=C1CCC(N2Cc3c(ccc4c3OCC43CCN(Cc4ccc(F)c5ccccc45)CC3)C2=O)C(=O)N1 (stereo not drawn) [Compound A36, 3-(1′-((4-fluoronaphthalen-1-yl)methyl)-6-oxo-6,8-dihydro-2H,7H-spiro[furo[2,3-e]isoindole-3,4′-piperidin]-7-yl)piperidine-2,6-dione]	50 to 200	60 to 80
O=C1CCC(N2Cc3c(ccc4c3OCC43CCN(CC4CCOCC4)CC3)C2=O)C(=O)N1 (stereo not drawn) [Compound A20, 3-(6-oxo-1′-((tetrahydro-2H-pyran-4-yl)methyl)-6,8-dihydro-2H,7H-spiro[furo[2,3-e]isoindole-3,4′-piperidin]-7-yl)piperidine-2,6-dione]	> 500	< 40
COc1ccc(C(=O)Nc2cccc(CN3CCC4(CC3)COc3c4ccc4c3CN(C3CCC(=O)NC3=O)C4=O)c2)cc1 (stereo not drawn) [Compound A177, N-(3-((7-(2,6-dioxopiperidin-3-yl)-6-oxo-7,8-dihydro-2H,6H-spiro[furo[2,3-e]isoindole-3,4′-piperidin]-1′-yl)methyl)phenyl)-4-methoxybenzamide]	< 50	> 80
